Experimental findings from US9017938B2, “Use of microrna-199b-5p in medical and diagnostic field” (Advanced Accelerator Applications, priority 2009, dated 2015) are described below.

Common to all, as to assay type: cell-based, human
One data set has as its system D283MED cells. In words: Proliferation assay MTS, D283MED. The following applies: transient transfection vs mock-transfected cells. On the procedure: Cell proliferation was determined using the CellTiter96 AQueous Non-Radioactive Cell Proliferation Assay Kit (Promega Madison, Wis.). The cells were seeded into 96-well plates at a density of 1×10^3 cells/well in EMEM without or with FBS. After 0, 24, 48 and 72 h, MTS ([3-(4,5-dimethylthiazol-2-yl)-5-(3-carboxymethoxyphenyl)-2-(4-sulfophenyl)-2H-tetrazolium]) and PMS (phenazine methosulfate) were added to each well and after 4 h the absorbance of each well was measured at 490 nm (OD490) using Multilabel counter Victor^3 (Perkin Elmer). Each condition was performed with five wells and each experiment was repeated twice.

Another data set concerns HES1. Briefly: Western blotting of HES1 protein. On the procedure: (§1) Thirty μg cytosolic or nuclear lysates were loaded onto 12% polyacrilamide gels, and blotted onto polyvinylidene difluoride membranes (PVDF; BioRad, Milan, Italy). The membranes were then incubated with anti-HES1 (kind gift of Dr. Tetsuo Sudo TORAY Industries, Tebiro Kamakura, Japan), a polyclonal rabbit antibody (1:500), an anti-GSK3-β (B&D Bioscience) monoclonal antibody (1:2500), an anti-c-Myc polyclonal rabbit antibody (1:200) (Santa Cruz Biotechnology, Santa Cruz, Calif., USA), an anti-GABRA6 antibody (Santa Cruz Biotechnology, Santa Cruz, USA) (1:200), an anti-MATH3 antibody (Santa Cruz Biotechnology, Santa Cruz, USA) (1:200) and an anti-cyclin D1 (1:200) polyclonal rabbit antibody (Cell Signaling). An anti-β-actin antibody (1:1.000) (Sigma) was used as the control for equal loading of cytosolic lysates and a polyclonal anti-β-laminin antibody (1:50) (Santa Cruz Biotechnology, Santa Cruz, Calif., USA) for equal loading of nuclear lysates.
Background: Immunoblotting shows a protein as a band on a membrane.

For the next data set, the system named is CD133+ Daoy cells. In words: CD133 FACS analysis. On the procedure:
The flow cytometry analysis of S-phase fractions and cell-cycle kinetics were carried out using a FACSCalibur (Becton Dickinson, San Jose, Calif.) using CELL Quest version 3.3 software. The CD133 studies were carried out using the same instrument, with antibodies from Miltenyi Biotec (Auburn, Calif.), according to the manufacturer instructions. In brief, the cells were blocked in Fc receptor blocking reagent and incubated with an anti-CD133/1 (AC133)-phycoerythrin antibody (Miltenyi Biotec), for 10 min in the dark at 4° C. The cells were then washed and resuspended in PBS. Cells expressing higher levels of CD133 than the immunoglobulin G (IgG) controls were considered positive. For analyses of the side populations, cells […] were incubated with Hoechst 33342 (5 μmol/L; Sigma) for 90 min at 37° C. in EMEM containing 2% FBS. To ensure the correct identification of the side population cells, the cells were incubated as above with the addition of 50 μM verapamil (Sigma).
(In general: Flow cytometry measures light scatter and fluorescence of single cells or particles in a stream.)

The subject of a further data set is GSK3-β. Briefly: Western blotting of GSK3-β. Particulars: stable 199bSC1 clone. On the procedure: as §1

As to “miR-199b-5p: mature microRNA CCCAGUGUUUAGACUAUCUGUUC (SEQ ID NO:11); over-expressed from pre-miR-199b construct, e.g. stable Daoy clones 199bSC1, 199bMC1 (listed as RNA, chemistry not fully specified)”, in the data set on D283MED cells, the proliferation entry is reported as “decreased proliferation”. The “endogenous HES1 protein level” value is “lowered the levels of the endogenous HES1 protein” in the data set with HES1 (D283 cells, transient transfection vs empty vector) and “lowered the levels of the endogenous HES1 protein” in the data set on HES1 (HEK293 cells, transient transfection, 48 h). Further, the HES1 protein level entry in the data set on HES1 (stable Daoy clone 199bSC1) is “no detectable HES1”; with HES1 (three stable Daoy clones over-expressing miR-199b-5p) it was “reduced HES1 protein levels”. Moreover, the “CD133+ cells” value was 6.5% in the data set with CD133+ Daoy cells (stable 199bMC1 clone (wild-type cells 14.8%)) and 2.4% in the data set with CD133+ Daoy cells (stable 199bSC1 clone (wild-type cells 14.8%)). Also, the GSK3-β protein levels result with GSK3-β is reported as “did not show any significant reductions”.
